How the values were obtained:
[1] = system: barnyardgrass; assay: Test A preemergence; assay type: in vivo, Echinochloa crus-galli
Excerpt: (§1) Seeds of plant species selected from barnyardgrass (Echinochloa crus-galli), kochia (Kochia scoparia), ragweed (common ragweed, Ambrosia elatior), Italian ryegrass (Lolium multiflorum), large (Lg) crabgrass (Digitaria sanguinalis), giant foxtail (Setaria faberii), morningglory (Ipomoea spp.), pigweed (Amaranthus retroflexus), velvetleaf (Abutilon theophrasti), wheat (Triticum aestivum), and corn (Zea mays) were planted into a blend of loam soil and sand and treated preemergence with a directed soil spray using test chemicals formulated in a non-phytotoxic solvent mixture which included a surfactant.
(§2) At the same time, plants selected from these crop and weed species and also blackgrass (Alopecurus myosuroides), and galium (catchweed bedstraw, Galium aparine) were planted in pots containing the same blend of loam soil and sand and treated with postemergence applications of test chemicals formulated in the same manner. Plants ranged in height from 2 to 10 cm and were in the one- to two-leaf stage for the postemergence treatment. Treated plants and untreated controls were maintained in a greenhouse for approximately 10 days, after which time all treated plants were compared to untreated controls and visually evaluated for injury. Plant response ratings, summarized in Table A, are based on a 0 to 100 scale where 0 is no effect and 100 is complete control. A dash (-) response means no test result.

[2] = system: large (Lg) crabgrass; assay: Test A preemergence; assay type: in vivo, Digitaria sanguinalis
Excerpt: as §1, §2

[3] = system: giant foxtail; assay: Test A preemergence; assay type: in vivo, Setaria faberii
Excerpt: as §1, §2

[4] = system: morningglory; assay: Test A preemergence; assay type: in vivo, Ipomoea spp.
Excerpt: as §1, §2

[5] = system: pigweed; assay: Test A preemergence; assay type: in vivo, Amaranthus retroflexus
Excerpt: as §1, §2

[6] = system: velvetleaf; assay: Test A preemergence; assay type: in vivo, Abutilon theophrasti
Excerpt: as §1, §2

[7] = system: wheat; assay: Test A preemergence; assay type: in vivo, Triticum aestivum
Excerpt: as §1, §2

[8] = system: corn; assay: Test A preemergence; assay type: in vivo, Zea mays
Excerpt: as §1, §2

[9] = system: barnyardgrass; assay: Test A postemergence; assay type: in vivo, Echinochloa crus-galli
Excerpt: as §1, §2

[10] = system: large (Lg) crabgrass; assay: Test A postemergence; assay type: in vivo, Digitaria sanguinalis
Excerpt: as §1, §2

[11] = system: giant foxtail; assay: Test A postemergence; assay type: in vivo, Setaria faberii
Excerpt: as §1, §2

[12] = system: morningglory; assay: Test A postemergence; assay type: in vivo, Ipomoea spp.
Excerpt: as §1, §2

[13] = system: pigweed; assay: Test A postemergence; assay type: in vivo, Amaranthus retroflexus
Excerpt: as §1, §2

[14] = system: velvetleaf; assay: Test A postemergence; assay type: in vivo, Abutilon theophrasti
Excerpt: as §1, §2

[15] = system: wheat; assay: Test A postemergence; assay type: in vivo, Triticum aestivum
Excerpt: as §1, §2

[16] = system: corn; assay: Test A postemergence; assay type: in vivo, Zea mays
Excerpt: as §1, §2

[17] = 500 g ai/ha, 0 to 100 scale where 0 is no effect and 100 is complete control
[18] = 1000 g ai/ha, 0 to 100 scale, 0 no effect, 100 complete control, approx. 10 days
[19] = 1000 g ai/ha, 0 to 100 scale, 0 no effect, 100 complete control

| SMILES | Barnyardgrass plant response rating [1, 18] | Crabgrass, Large plant response rating [2, 18] | Foxtail, Giant plant response rating [3, 18] | Morningglory plant response rating [4, 18] | Pigweed plant response rating [5, 18] | Velvetleaf plant response rating [6, 18] | Wheat plant response rating [7, 18] | Corn plant response rating [8, 18] | Plant response rating, Barnyardgrass [9, 19] | Plant response rating, Crabgrass, Large [10, 19] | Plant response rating, Foxtail, Giant [11, 19] | Plant response rating, Morningglory [12, 19] | Plant response rating, Pigweed [13, 19] | Plant response rating, Velvetleaf [14, 19] | Plant response rating, Wheat [15, 19] | Plant response rating, Corn [16, 19] | also measured |
| --- | --- | --- | --- | --- | --- | --- | --- | --- | --- | --- | --- | --- | --- | --- | --- | --- | --- |
| Fc1cccc(Oc2ncc(Cl)cn2)c1-n1cccn1 [Compound 176] | – | – | – | – | – | – | – | – | – | – | – | – | – | – | – | – | Barnyardgrass plant response rating [1, 17]: 60; Crabgrass, Large plant response rating [2, 17]: 100; Foxtail, Giant plant response rating [3, 17]: 100; Morningglory plant response rating [4, 17]: 0; Pigweed plant response rating [5, 17]: 100; Velvetleaf plant response rating [6, 17]: 90; Wheat plant response rating [7, 17]: 0; Corn plant response rating [8, 17]: 0; Plant response rating, Barnyardgrass [9, 17]: 40; Plant response rating, Crabgrass, Large [10, 17]: 40; Plant response rating, Foxtail, Giant [11, 17]: 50; Plant response rating, Morningglory [12, 17]: 80; Plant response rating, Pigweed [13, 17]: 100; Plant response rating, Velvetleaf [14, 17]: 90; Plant response rating, Wheat [15, 17]: 10; Plant response rating, Corn [16, 17]: 20 |
| Oc1cccc(Oc2ncc(Cl)cn2)c1-n1cc(Cl)cn1 [Compound 229] | 0 | 10 | 0 | 0 | 100 | 0 | 0 | 0 | 0 | 0 | 0 | 0 | 60 | 0 | 0 | 0 | – |
| N#CCOc1cccc(Oc2ncc(Cl)cn2)c1-n1cc(Br)cn1 [Compound 70] | – | – | 60 | 10 | 90 | 70 | 0 | – | 80 | 60 | 60 | 20 | 70 | 70 | 0 | 10 | Plant response rating, Barnyardgrass [1, 19]: 50; Plant response rating, Crabgrass, Large [2, 19]: 90; Plant response rating, Corn [8, 19]: 0 |
| Clc1cnc(Oc2ccccc2-n2cccn2)nc1 [Compound 12, 5-chloro-2-[2-(1H-pyrazol-1-yl)phenoxy]pyrimidine] | – | – | – | – | – | – | – | – | – | – | – | – | – | – | – | – | pest or weed control at 1000 g/ha ([1]; Echinochloa crus-galli, pre-emergence, 240 h, 1000 g ai/ha, 0 to 100 scale, 0 no effect, 100 complete control, read-out: Plant response rating, Barnyardgrass): 100%; pest or weed control at 1000 g/ha ([2]; Digitaria sanguinalis, pre-emergence, 240 h, 1000 g ai/ha, 0 to 100 scale, 0 no effect, 100 complete control, read-out: Plant response rating, Crabgrass, Large): 100%; pest or weed control at 1000 g/ha ([3]; Setaria faberi, pre-emergence, 240 h, 1000 g ai/ha, 0 to 100 scale, 0 no effect, 100 complete control, approx. 10 days, read-out: Foxtail, Giant plant response rating): 100%; pest or weed control at 1000 g/ha ([4]; Ipomoea, pre-emergence, 240 h, 1000 g ai/ha, 0 to 100 scale, 0 no effect, 100 complete control, approx. 10 days, read-out: Morningglory plant response rating): 0%; pest or weed control at 1000 g/ha ([5]; Amaranthus retroflexus, pre-emergence, 240 h, 1000 g ai/ha, 0 to 100 scale, 0 no effect, 100 complete control, approx. 10 days, read-out: Pigweed plant response rating): 100%; pest or weed control at 1000 g/ha ([6]; Abutilon theophrasti, pre-emergence, 240 h, 1000 g ai/ha, 0 to 100 scale, 0 no effect, 100 complete control, approx. 10 days, read-out: Velvetleaf plant response rating): 100%; plant injury at 1000 g/ha ([7]; Triticum aestivum, pre-emergence, 240 h, 1000 g ai/ha, 0 to 100 scale, 0 no effect, 100 complete control, approx. 10 days, read-out: Wheat plant response rating): 20%; Corn plant response rating (crop injury, 0 = no effect, 100 = complete kill) at 1000 g/ha ([8]; Zea mays, pre-emergence, 240 h, 1000 g ai/ha, 0 to 100 scale, 0 no effect, 100 complete control): 0%; pest or weed control at 1000 g/ha ([9]; Echinochloa crus-galli, post-emergence, 240 h, 1000 g ai/ha, 0 to 100 scale, 0 no effect, 100 complete control, read-out: Plant response rating Barnyardgrass): 90%; pest or weed control at 1000 g/ha ([10]; Digitaria sanguinalis, post-emergence, 240 h, 1000 g ai/ha, 0 to 100 scale, 0 no effect, 100 complete control, read-out: Plant response rating Crabgrass, Large): 80%; pest or weed control at 1000 g/ha ([11]; Setaria faberi, post-emergence, 240 h, 1000 g ai/ha, 0 to 100 scale, 0 no effect, 100 complete control, read-out: Plant response rating Foxtail, Giant): 80%; pest or weed control at 1000 g/ha ([12]; Ipomoea, post-emergence, 240 h, 1000 g ai/ha, 0 to 100 scale, 0 no effect, 100 complete control, read-out: Plant response rating Morningglory): 90%; pest or weed control at 1000 g/ha ([13]; Amaranthus retroflexus, post-emergence, 240 h, 1000 g ai/ha, 0 to 100 scale, 0 no effect, 100 complete control, read-out: Plant response rating Pigweed): 100%; pest or weed control at 1000 g/ha ([14]; Abutilon theophrasti, post-emergence, 240 h, 1000 g ai/ha, 0 to 100 scale, 0 no effect, 100 complete control, read-out: Plant response rating Velvetleaf): 100%; plant injury at 1000 g/ha ([15]; Triticum aestivum, post-emergence, 240 h, 1000 g ai/ha, 0 to 100 scale, 0 no effect, 100 complete control, read-out: Plant response rating Wheat): 20%; plant injury at 1000 g/ha ([16]; Zea mays, post-emergence, 240 h, 1000 g ai/ha, 0 to 100 scale, 0 no effect, 100 complete control, read-out: Plant response rating Corn): 30% |
| CC(=O)Oc1cccc(Oc2ncc(Cl)cn2)c1-n1cc(Br)cn1 [Compound 67] | – | – | 10 | 0 | 100 | 10 | 0 | – | 20 | 10 | 10 | 10 | 100 | 70 | 0 | 10 | Plant response rating, Barnyardgrass [1, 19]: 0; Plant response rating, Crabgrass, Large [2, 19]: 20; Plant response rating, Corn [8, 19]: 0 |
| Fc1cc(F)cc(-c2cn(-c3c(Br)cccc3Oc3ncc(Cl)cn3)nn2)c1 [Compound 303] | 0 | 60 | 50 | 0 | 80 | 0 | 0 | 0 | 20 | 20 | 20 | 30 | 90 | 70 | 0 | 10 | – |
| COc1ccc(I)c(-n2cc(Br)cn2)c1Oc1ncc(Cl)cn1 [Compound 207] | 0 | 50 | 50 | 0 | 0 | 30 | 0 | 0 | 10 | 40 | 60 | 30 | 70 | 30 | 0 | 0 | – |
